Measured values from publication PMC3624796 (Journal of Medicinal Chemistry, 2013).

Target: T1, T4 lysozyme L99A/M102H† (Enterobacteria phage T4, UniProt P00720, C54T/C97A/E108V/L99A/M102H/N144D/S117V/S38D/T142C/T21C)
Format: binding
Details: crystal structure

Going from `C#CC(O)c1ccccc1` (stereo not drawn) [1-phenyl-2-propyn-1-ol, 1-phenyl-2-propyn-1-ol] to `C=CCc1ccccc1O` [2-allyl phenol], the “hydrogen bond distance between ligand and His102” value rises from 2.77 Å to 3.00 Å.

Compared with `Nc1ncc(Cl)s1` [2-amino-5-chloro thiazole], `Brc1c[nH]cn1` [4-bromoimidazole] is higher in “hydrogen bond distance between ligand and His102” value: 2.89 Å for the first, 2.93 Å for the second.

First: O=Cc1cc(O)ccc1Br [2-bromo-5-hydroxybenzaldehyde]
Second: Cc1cc(C(F)(F)F)n[nH]1 [3-methyl-5-(trifluoromethyl) pyrazole]
The “hydrogen bond distance between ligand and His102” value of the first is lower: 2.50 Å for the first, 2.90 Å for the second.

For `FC(F)(F)c1c[nH]cn1` [4-trifluoromethyl imidazole], the “hydrogen bond distance between ligand and His102” value was 2.85 Å.

Test system: T4 lysozyme L99A
Details: cited from earlier work

In the case of `Oc1ccccc1` [phenol], the “binding to L99A cavity” value is given as “does not measurably bind”.

Target: T1, T4 lysozyme L99A/M102H†
Format: binding
Details: not given

Compared with `O=[N+]([O-])c1ccc(O)cc1` [4-nitrophenol], `N#Cc1cc(Br)ccc1O` [5-bromo-2-hydroxybenzonitrile] is lower in “ΔGmelt (change of stability on ligand binding, ΔTm × ΔS)” value: 1.4 kcal/mol for the first, 0.6 kcal/mol for the second.

In the case of `C=CSc1ccccc1` [phenyl vinyl sulfide], the “ΔGmelt (change of stability on ligand binding, ΔTm × ΔS)” value is reported as 0.25 kcal/mol.

Target: T1, T4 lysozyme L99A/M102H†
Format: binding
Details: not given
Remark: another data set of the same source

With `O=[N+]([O-])c1ccc(O)cc1` [4-nitrophenol] the “interaction with His102 stronger than with Gln102 (double perturbation analysis)” value was 2.4 kcal/mol.
